Measured values taken from patent publication US20140105919A1, “SYNERGISTIC INHIBITION OF ERBB2/ERBB3 SIGNAL PATHWAYS IN THE TREATMENT OF CANCER” (Institute for Cancer Research d/b/a The Research Institute …, priority 2011, published 2014).

What was measured:
Format in all cases: cell-based
[1] = system: MB361/DYT2 breast cancer cells; assay: secondary validation screen with single siGENOME siRNAs with or without MM-111, CellTiter-Blue viability; set-up: Vehicle (viability score) / Drug (viability score): scale not given here; conditions: for Ratio (drug:vehicle viability): single siRNA; for Drug (viability score): single siRNA and MM-111; for Vehicle (viability score): single siRNA only (vehicle)
Method: Subsets of targets that met criteria of being expressed in the cells and having an FDR of <5% or being expressed in the cells, having an FDR <20%, and having a known connection to ErbB signaling, were validated in a secondary screen in which MB361/DYT2 breast cancer cells were treated with siRNA molecules from the Dharmacon® siGENOME library (Dharmacon, Inc.). Parallel cells were treated with the siRNA only (vehicle) or both the siRNA and the ErbB2/ErbB3 bispecific antibody MM-111, and sensitization of the cells was measured by the CellTiter-Blue® (Promega) viability assay.

[2] = system: Notch signaling (CBF1 reporter) in BT-474 cells; assay: Notch-dependent activation of CBF-1 reporter (Dual-Luciferase Assay); conditions: MM-111 and Compound E
Method: BT-474 cells were co-transfected with CBF1::firefly luciferase and pRL-TK (renilla luciferase) as an internal control for transfection efficiency. Cells were then treated with MM-111, MM-111 and Compound E, or Rituximab (control antibody), and the ratio of firefly/renilla expression was measured using the Dual-Luciferase Assay (Promega) according to the manufacturer's instructions.

BT474 cells = assay: Cell sensitization to MM-111 and gamma-secretase inhibitor, CellTiter-Blue viability; conditions: BT474, 72 hrs; Compound E 1 μM, MM-111 2 μM, alone or combined; vs DMSO
Method: Inhibition of the Notch pathway was carried out with a compound. Breast cancer cells (BT474 cells) were plated in 96-well plates in DMEM/F12 media with 1% FBS and incubated in a humidified CO2 incubator at 37° C. for 24 hours prior to drug treatment. The media was replaced with DMEM/F12 media with 1% FBS containing DMSO, 1 μM Compound E (Santa Cruz, SC-221433), 2 μM MM-111 (Merrimack Pharmaceuticals), or combined Compound E and MM-111. Cells were incubated in the presence of drug for 72 hrs. CellTiter-Blue® (Promega) was used to measure cell viability according to the standard protocol. The total incubation time in the presence of CellTiter-Blue® was 4 hours, and fluorescence was measured using a Perkin Elmer Envision Plate Reader.

[3] = system: Notch target genes in MB-361/DYT2 cells; assay: Real time PCR of endogenous Notch target genes HES1, HES5, HEY1; conditions: MB361/DYT2; compared to untreated, DMSO or Rituximab
Method: MB-361/DYT2 cells were left untreated (NT) or treated with DMSO (vehicle for Compound E), rituximab (control antibody), Compound E, MM-111, or MM-111 and Compound E. Total RNA was extracted from cells using the RNeasy kit (Qiagen). Total RNA was reverse transcribed to cDNA, and real time PCR was performed, using ABI primer/probe sets, on cDNAs to detect relative expression of the validated Notch target genes HES1 (ABI Assay ID Hs00172878_m1), HES5 (ABI Assay ID Hs01387463_g1), or HEY1 (ABI Assay ID Hs01114113_m1).

| Compound | Ratio (drug:vehicle viability) [1] | Drug (viability score) [1] | Vehicle (viability score) [1] | MM-111-induced CBF1 reporter activity [2] | cell viability / cell killing (BT474 cells) | expression of Notch target genes HES1, HES5, and HEY1 [3] |
| --- | --- | --- | --- | --- | --- | --- |
| GGUGUUGUCUGGUCAGUAA (listed as RNA, chemistry not given here; listed as Homo sapiens) [SEQ ID NO: 19, Dharmacon siGENOME siRNA targeting NLK] | 0.776 | 0.991 | 0.993 | – | – | – |
| GCAGCAAGACCAAGAAAUC (listed as RNA, chemistry not given here; listed as Homo sapiens) [SEQ ID NO: 57, Dharmacon siGENOME siRNA targeting CYR61] | 0.856 | 0.846 | 0.988 | – | – | – |
| CAUAAGCCCUGCAAGAAUG (listed as RNA, chemistry not given here; listed as Homo sapiens) [SEQ ID NO: 17, Dharmacon siGENOME siRNA targeting DLL1] | 0.823 | 0.812 | 0.987 | – | – | – |
| CCACACGGUUUAAGUCUAU (listed as RNA, chemistry not given here; listed as Homo sapiens) [SEQ ID NO: 50, Dharmacon siGENOME siRNA targeting RFNG] | 0.939 | 1.250 | 1.331 | – | – | – |
| GGUUGUGCCUGGAGGUGGA (listed as RNA, chemistry not given here; listed as Homo sapiens) [SEQ ID NO: 24, Dharmacon siGENOME siRNA targeting TPT1] | 0.845 | 0.775 | – | – | – | – |
| CCAAAGGCCUGACCGUUAA (listed as RNA, chemistry not given here; listed as Homo sapiens) [SEQ ID NO: 26, Dharmacon siGENOME siRNA targeting AAMP] | 0.844 | 0.821 | 0.973 | – | – | – |
| GAAGAUACUUGGCACUAUU (listed as RNA, chemistry not given here; listed as Homo sapiens) [SEQ ID NO: 21, Dharmacon siGENOME siRNA targeting SC4MOL] | 0.877 | 0.955 | 1.089 | – | – | – |
| GGGUCGCUGUGAUGAAAUU (listed as RNA, chemistry not given here; listed as Homo sapiens) [SEQ ID NO: 45, Dharmacon siGENOME siRNA targeting DCI] | 0.762 | 0.627 | 0.823 | – | – | – |
| C[C@H](NC(=O)Cc1cc(F)cc(F)c1)C(=O)N[C@H]1N=C(c2ccccc2)c2ccccc2N(C)C1=O [Compound E] | – | – | – | the activity is blocked | no effect on viability | reduced |
